Experiments:
Assay type in all cases: in vivo
STZ-diabetic rats = assay: STZ-rat model, cold allodynia response
Protocol: The compound of Example 1 is also tested in an STZ-rat model of neuropathic pain. Briefly, adult female rats are made diabetic by treatment with streptozotocin (STZ), an alkylating neoplastic agent which is particularly toxic to the insulin-producing beta cells of the pancreas. The resulting type-I diabetes in the rats leads to the development of diabetic neuropathy over a 3 to 6-week period. […] Once diabetic neuropathy has been induced, the rats may be treated to determine the analgesic effect of compounds.
Paw cold response threshold is a clinical assessment of cold pain perception. A rigid filament with a thermoelectric cooling system is used to stimulate the plantar surface of the hind paw for 5 seconds. The stimulus is repeated ten times at 2 to 5-minute intervals. The number of paw withdrawal responses is recorded and converted to a response frequent figure (%). This procedure is repeated at a variety of temperatures. […] At a stimulus temperature of 20° C. or 15° C., the response frequency is found to be substantially the same between STZ-treated rats and control rats (from about 10-20% response). In contrast, at a stimulus temperature of 10° C. or below, there is a substantial divergence of frequency response. In control rats, a stimulus temperature of 10° C. results in about 10% response frequency, while at 5° C., this increases to about 40% response frequency. In contrast, STZ-treated rats show a response frequency of about 60% at 10° C., and about 80% at 5° C. […] A stable cold allodynia response is observed 4-12 weeks after induction of diabetes.
The cold allodynia response test is performed at 0 hours, 1 hour, 2 hours, 4 hours and 6 hours, as described above, using a 10° C. stimulus temperature. The injection vehicle is pure polyethylene glycol-400 (PEG400).

ZFD rats [1] = assay: ZFD rat model, manual von Frey (tactile); design: unit not given here
ZFD rats [2] = assay: ZFD rat model, paw formalin test; settings: s.c. or i.t., at the end of the study
From the text: Paw formalin test: This test enables discrimination of pain driven by primary afferent input (phase 1) versus spinal sensitization and amplifications of primary afferent input (phase 2). There is, however, no clinical equivalent to this test. The method used here is described in detail in Calcutt (2004), supra.

ZFD rats [3] = assay: ZFD rat model, paw cold response
Protocol: Forty (40) adult, male […] rats weighing 225-275 g at the start of the study are used in these experiments, including ten (10) lean, controls and thirty (30) ZFD rats. Animals are maintained in the vivarium at a controlled room temperature between 65 to 85° F. and a relative humidity between 30-70% under illumination by fluorescent lighting on a daily 12-hour light/dark cycle. All animals are maintained 2 per cage with free access to dry food and water.
Paw cold response threshold: This test replicates the clinical test of cold pain perception threshold. Rats are transferred to a testing cage with a wire mesh bottom and allowed to acclimate. A rigid filament attached to a Peltier thermoelectric cooling system is used to stimulate the plantar surface of the hind paw for 5 seconds. The stimulus is repeated 10 times at 2 to 5 minute intervals and the number of paw withdrawal responses is recorded and converted to a response frequency (%). This paradigm is repeated at various stimulation temperatures.
Dosing procedures. Zucker Fatty Diabetic rats are found to develop hyperglycemia over 6-8 weeks. […] Upon confirmation of the presence of painful neuropathy, rats are tested for three measures of hyperalgesia: cold allodynia threshold, tactile hyperalgesia (von Frey filaments), and pressure responses measured by a mechanical von Frey device. All rats are tested in all three assays and all rats receive each of four (4) pre-treatments administered subcutaneously (s.c.) in a vehicle of 10% Trappsol in water. All rats receive treatments in the same order, as follows: vehicle, 1 mg/kg Compound of Ex. 1, 3 mg/kg Compound of Ex. 1, and 10 mg/kg Compound of Ex. 1. Rats receive pre-treatments 30 minutes prior to the start of testing. Hyperalgesia/allodynia measures are recorded from each rat at baseline (0 time), then 1, 2, 3, 4, and 6 h after treatment.
After the completion of testing of all rats at all dose/conditions for each assay (cold, tactile, and pressure responses) rats are out-fitted with cannulas for intrathecal (i.t.) application of vehicle or Compound of Ex. 1 (1, 3 or 10 μg) directly to spinal cord. All rats are then re-tested in each of the tree assays at each of the 4 pretreatment conditions/doses.

[4] = Control rats, 10 mg/kg s.c., 0 hr
[5] = Control rats, 10 mg/kg s.c., 1 hr
[6] = Control rats, 10 mg/kg s.c., 2 hr
[7] = Control rats, 10 mg/kg s.c., 4 hr

SMILES: O=C1CN2c3c(cccc3[C@@H]3CN(CCCOc4ccc(F)cc4)CC[C@@H]32)N1 [Example 1, (6bR,10aS)-8-(3-(4-fluorophenoxy)propyl)-6b,7,8,9,10,10a-hexahydro-1H-pyrido[3′,4′:4,5]pyrrolo[1,2,3-de]quinoxalin-2(3H)-one]
- cold response frequency (STZ-diabetic rats; 1 mg/kg s.c., 1 hour): ~35%
- cold response frequency (STZ-diabetic rats; 1 mg/kg s.c., 4 hours): about 70%
- cold response frequency (STZ-diabetic rats; 1 mg/kg s.c., 6 hours): about 75%
- cold response frequency (STZ-diabetic rats; 3 mg/kg s.c., 1 hour): about 10%
- cold response frequency (STZ-diabetic rats; 3 mg/kg s.c., 4 hours): about 65%
- cold response frequency (STZ-diabetic rats; 3 mg/kg s.c., 6 hours): 75%
- cold response frequency (STZ-diabetic rats; 10 mg/kg s.c., 1 hour): about 15%
- cold response frequency (STZ-diabetic rats; 10 mg/kg s.c., 2 hours): about 10%
- cold response frequency (STZ-diabetic rats; 10 mg/kg s.c., 4 hours): about 20%
- cold response frequency (STZ-diabetic rats; 10 mg/kg s.c., 6 hours): about 40%
- Manual von Frey, threshold for paw withdrawal (ZFD rats [1]; Control rats, 10 μg i.t., 0 hr): 11.90
- Manual von Frey, threshold for paw withdrawal (ZFD rats [1]; Control rats, 10 μg i.t., 1 hr): 13.90
- Manual von Frey, threshold for paw withdrawal (ZFD rats [1]; Control rats, 10 μg i.t., 2 hr): 14.14
- Manual von Frey, threshold for paw withdrawal (ZFD rats [1]; Control rats, 10 μg i.t., 4 hr): 13.67
- Manual von Frey, threshold for paw withdrawal (ZFD rats [1]; [4]): 13.98
- Manual von Frey, threshold for paw withdrawal (ZFD rats [1]; [5]): 12.28
- Manual von Frey, threshold for paw withdrawal (ZFD rats [1]; [6]): 13.93
- Manual von Frey, threshold for paw withdrawal (ZFD rats [1]; [7]): 13.45
- Manual von Frey, threshold for paw withdrawal (ZFD rats [1]; ZFD rats, 1 μg i.t., 0 hr): 2.06
- Manual von Frey, threshold for paw withdrawal (ZFD rats [1]; ZFD rats, 1 μg i.t., 1 hr): 2.28
- Manual von Frey, threshold for paw withdrawal (ZFD rats [1]; ZFD rats, 1 μg i.t., 4 hr): 4.25
- Manual von Frey, threshold for paw withdrawal (ZFD rats [1]; ZFD rats, 3 μg i.t., 0 hr): 5.78
- Manual von Frey, threshold for paw withdrawal (ZFD rats [1]; ZFD rats, 3 μg i.t., 1 hr): 9.68
- Manual von Frey, threshold for paw withdrawal (ZFD rats [1]; ZFD rats, 3 μg i.t., 2 hr): 12.11
- Manual von Frey, threshold for paw withdrawal (ZFD rats [1]; ZFD rats, 3 μg i.t., 4 hr): 7.01
- Manual von Frey, threshold for paw withdrawal (ZFD rats [1]; ZFD rats, 10 μg i.t., 0 hr): 1.92
- Manual von Frey, threshold for paw withdrawal (ZFD rats [1]; ZFD rats, 10 μg i.t., 1 hr): 8.53
- Manual von Frey, threshold for paw withdrawal (ZFD rats [1]; ZFD rats, 10 μg i.t., 2 hr): 11.57
- Manual von Frey, threshold for paw withdrawal (ZFD rats [1]; ZFD rats, 10 μg i.t., 4 hr): 4.77
- Manual von Frey, threshold for paw withdrawal (ZFD rats [1]; ZFD rats, 1 mg/kg s.c., 1 hr): 2.61
- Manual von Frey, threshold for paw withdrawal (ZFD rats [1]; ZFD rats, 1 mg/kg s.c., 2 hr): 1.70
- Manual von Frey, threshold for paw withdrawal (ZFD rats [1]; ZFD rats, 1 mg/kg s.c., 4 hr): 2.07
- Manual von Frey, threshold for paw withdrawal (ZFD rats [1]; ZFD rats, 3 mg/kg s.c., 0 hr): 2.22
- Manual von Frey, threshold for paw withdrawal (ZFD rats [1]; ZFD rats, 3 mg/kg s.c., 1 hr): 6.48
- Manual von Frey, threshold for paw withdrawal (ZFD rats [1]; ZFD rats, 3 mg/kg s.c., 2 hr): 10.15
- Manual von Frey, threshold for paw withdrawal (ZFD rats [1]; ZFD rats, 10 mg/kg s.c., 0 hr): 1.71
- Manual von Frey, threshold for paw withdrawal (ZFD rats [1]; ZFD rats, 10 mg/kg s.c., 1 hr): 6.97
- Manual von Frey, threshold for paw withdrawal (ZFD rats [1]; ZFD rats, 10 mg/kg s.c., 2 hr): 13.47
- Manual von Frey, threshold for paw withdrawal (ZFD rats [1]; ZFD rats, 10 mg/kg s.c., 4 hr): 9.25
- pain responses in early or late phase of the formalin test (ZFD rats [2]): no effect
- Cold Test response frequency (ZFD rats [3]; Control rats, 10 μg i.t., 0 hr): 17%
- Cold Test response frequency (ZFD rats [3]; Control rats, 10 μg i.t., 1 hr): 11%
- Cold Test response frequency (ZFD rats [3]; Control rats, 10 μg i.t., 2 hr): 20%
- Cold Test response frequency (ZFD rats [3]; Control rats, 10 μg i.t., 4 hr): 14%
- Cold Test response frequency (ZFD rats [3]; [4]): 16%
- Cold Test response frequency (ZFD rats [3]; [5]): 18%
- Cold Test response frequency (ZFD rats [3]; [6]): 10%
- Cold Test response frequency (ZFD rats [3]; [7]): 10%
- Cold Test response frequency (ZFD rats [3]; ZFD rats, 1 μg i.t., 0 hr): 93%
- Cold Test response frequency (ZFD rats [3]; ZFD rats, 1 μg i.t., 1 hr): 90%
- Cold Test response frequency (ZFD rats [3]; ZFD rats, 1 μg i.t., 2 hr): 83%
- Cold Test response frequency (ZFD rats [3]; ZFD rats, 1 μg i.t., 4 hr): 83%
- Cold Test response frequency (ZFD rats [3]; ZFD rats, 3 μg i.t., 0 hr): 77%
- Cold Test response frequency (ZFD rats [3]; ZFD rats, 3 μg i.t., 1 hr): 37%
- Cold Test response frequency (ZFD rats [3]; ZFD rats, 3 μg i.t., 2 hr): 27%
- Cold Test response frequency (ZFD rats [3]; ZFD rats, 3 μg i.t., 4 hr): 70%
- Cold Test response frequency (ZFD rats [3]; ZFD rats, 10 μg i.t., 0 hr): 93%
- Cold Test response frequency (ZFD rats [3]; ZFD rats, 10 μg i.t., 1 hr): 33%
- Cold Test response frequency (ZFD rats [3]; ZFD rats, 10 μg i.t., 2 hr): 33%
- Cold Test response frequency (ZFD rats [3]; ZFD rats, 10 μg i.t., 4 hr): 77%
- Cold Test response frequency (ZFD rats [3]; ZFD rats, 1 mg/kg s.c., 0 hr): 88%
- Cold Test response frequency (ZFD rats [3]; ZFD rats, 1 mg/kg s.c., 1 hr): 96%
- Cold Test response frequency (ZFD rats [3]; ZFD rats, 1 mg/kg s.c., 2 hr): 94%
- Cold Test response frequency (ZFD rats [3]; ZFD rats, 1 mg/kg s.c., 4 hr): 86%
- Cold Test response frequency (ZFD rats [3]; ZFD rats, 3 mg/kg s.c., 0 hr): 88%
- Cold Test response frequency (ZFD rats [3]; ZFD rats, 3 mg/kg s.c., 1 hr): 32%
- Cold Test response frequency (ZFD rats [3]; ZFD rats, 3 mg/kg s.c., 2 hr): 26%
- Cold Test response frequency (ZFD rats [3]; ZFD rats, 3 mg/kg s.c., 4 hr): 90%
- Cold Test response frequency (ZFD rats [3]; ZFD rats, 10 mg/kg s.c., 0 hr): 90%
- Cold Test response frequency (ZFD rats [3]; ZFD rats, 10 mg/kg s.c., 1 hr): 28%
- Cold Test response frequency (ZFD rats [3]; ZFD rats, 10 mg/kg s.c., 2 hr): 16%
- Cold Test response frequency (ZFD rats [3]; ZFD rats, 10 mg/kg s.c., 4 hr): 48%

— patent US20220184072A1 (priority 2019, published 2022)
